Series [1] has as its system ICH rats. The experiment in a line: Ca2+ level and mitochondrial membrane potential in brain tissue, ICH rats. The class given is in vivo, rat. As to conditions: 12-24 hours after operation, group M. On the procedure: (§1) The rats were decapitated to collect the brain 12 to 24 hours after modeling. The brain cortex around the hematoma was immediately taken to prepare a single cell suspension by enzymatic digestion (papain: 2 mg/mL; DNAase I: 0.05 mg/mL), with the cell concentration was adjusted to 5×10^6 cells/mL. 100 μL of cell suspension was incubated with 5 μM Fluo-3/AM dye solution or 10 μM Rhodamine 123 dye solution at 37° C. for 45 min. Then the cells were washed twice with PBS (phosphate buffer, pH=7.2-7.4), resuspended with 0.5 mL of PBS, and detected by a flow cytometry at the excitation wavelength of 506 nm and the emission wavelength of 526 nm. The mean fluorescence intensity of Fluo-3 and Rh123 in 10,000 cells was analyzed by FlowJo software.

For series [2], the system named is PC12 cells. The series is described as follows: Oxyhemoglobin-damaged PC12 cells, MTT. As to conditions: α-asarone emulsion 1, 5, 10, 25, 50 μM pre-incubated 2 hours, 6 μM oxyhemoglobin 24 hours. The format is cell-based. As for the experimental part:
PC12 cells in the logarithmic phase of growth were seeded in a 96-well plate (1×10^4 cells/100 μL/well) with the marginal wells filled with sterile PBS, and cultured with complete culture medium at 37° C. with 5% CO2 for 24 hours until the cells completely adhered to the wall. The supernatant was discarded followed by oxyhemoglobin incubation at 37° C. with 5% CO2 for 24 hours with final concentrations of 0 μM, 4 μM, 6 μM, 8 μM and 10 μM, respectively. Subsequently, 10 μL MTT (5 mg/mL) was added into each well and incubated at 37° C. with 5% CO2 for 4 hours. Then, the supernatant was discarded, the formazan was dissolved with 100 μL DMSO, and the optical density (OD) was gauged at 570 nm by a microplate reader after incubation at 37° C. for 15 minutes (500 r/min) to calculate the cell viability. According to the formula “fold of cell abnormal proliferation=[(average absorbance value of the experimental group−average absorbance value of zero-adjusting well)/(average absorbance value of the control group−average absorbance value of zero-adjusting well)”, 6 μM oxyhemoglobin was screened out for following in vitro pharmacodynamic experiment since it produced a maximum of 1.5-fold abnormal cell proliferation compared to the control group. […]

Series [3] in a line: Toxic and side effects observed during all the experiments. The class given is in vivo. As to conditions: during all the experiments of the disclosure.
The test system of series [4] is ICH rats. The series is described as follows: Glutamate and GABA content in brain tissue, ICH rats. The class given is in vivo, rat. As to conditions: 12 to 24 hours after operation, group M. On the procedure:
The rats were deeply anesthetized, and decapitated to collect the brain at 12-24 hours after modeling. Then about 60 to 120 mg of brain cortex on the hemorrhagic side were weighed, homogenized with 10 times the volume of ice-cold centrifuge buffer for biochemical detection, homogenized for 10 min in an ice bath, and centrifuged at 4° C. for 30 minutes (14,000 rpm/min). The contents of glutamate and GABA in the supernatant were detected according to the instructions of glutamate content detection kit and rat GABA Elisa kit.

Series [5] concerns SAH rats. The series is described as follows: Short-term neurological function of SAH rats (Garcia score, beam balance test, bleeding score). The class given is in vivo, rat. Particulars: SAH model, 24 hours after modeling; group O, α-asarone emulsion oral administration 40 mg/kg.
In series [6] the test system is SAH rats. The series is described as follows: Ca2+ level and mitochondrial membrane potential in brain tissue, SAH rats. The format is in vivo, rat. As to conditions: 12-24 hours after operation, group M. As for the experimental part:
as §1

Series [7] has as its system mouse bone marrow cells. The experiment in a line: Mouse bone marrow micronucleus test by flow cytometry. The format is in vivo. Particulars: mice; for MNPCE / PCE / fMNPCE (‰): 4 days. On the procedure:
Experimental grouping and administration: The animals were randomly divided into five groups with 10 […] in each group: blank control group (blank group, administrated blank emulsion with the same volume as the high-dose group of α-asarone), cyclophosphamide group (CTX group, 40 mg/kg), low dose of α-asarone emulsion injection group (prepared by preparation embodiment 7, 100 mg/kg/day, ASA-L group), medium dose of α-asarone emulsion injection group (prepared by preparation embodiment 7, 150 mg/kg/day, ASA-M group), and high dose of α-asarone emulsion injection group (prepared from preparation embodiment 7, 200 mg/kg/day, ASA-H group).
All drugs were administrated through the tail vein for continuous 4 days except for the single injection of the positive control drug cyclophosphamide (CTX) 24 hours before sampling. After 24 hours of the last administration, the mice were sacrificed to separate both femurs. The femoral bone marrow cells were washed with PBS and filtered by 300 mesh nylon cell sieves to prepare a single-cell suspension. The suspension was centrifuged at 1650 rpm for 5 min, and the cell concentration was adjusted to 5×10^6 cells/mL by PBS resuspension. For each sample, 100 μL of the cell suspension was incubated with 400 μL of the PIPES-PI solution (10 mL of PIPES solution (concentration of 3.5 mg/mL)+0.5 mg PI+0.01 mL Triton X-100 (concentration of 0.1%)), gently blown and mixed, at 4° C. in the dark for 30 min and detected by a flow cytometry. […] The higher the value, the stronger the genotoxicity.
In general terms: A flow cytometer gives signals particle by particle.

The mark [8] stands for this setting: ASA-H group, α-asarone emulsion injection 200 mg/kg/day tail vein.
Where [9] appears, read: ASA-L group, α-asarone emulsion injection 100 mg/kg/day tail vein.
Setting [10] is: ASA-M group, α-asarone emulsion injection 150 mg/kg/day tail vein.

The values below come from patent US12636260B2, “Application of α-asarone in preparation of medicine for preventing or treating hemorrhagic stroke” (CHENGDU XINRUI TAIKANG TECHNOLOGY CO., LTD., priority 2021, dated 2026).

The structures appear in SMILES notation.

Turning to `C/C=C/c1cc(OC)c(OC)cc1OC` [α-asarone, trans-2,4,5-trimethoxy-1-propenylbenzene], the “calcium level in brain tissue” value in series [1] (Fluo-3 flow cytometry) is on record as “significantly reduce”. The “mitochondrial membrane potential in brain tissue” value in series [1] (Rhodamine 123 flow cytometry) is “stabilize”. The “abnormal increase of cell vitality caused by oxyhemoglobin” value in series [2] is recorded as “significantly reduced”. For the same compound, the “toxic and side effects” value in series [3] was “no obvious toxic and side effects”. For the same compound, in series [4], the “GABA content in the hemorrhagic brain tissue” value was “significantly reduce” and the “glutamate content in the hemorrhagic brain tissue” value was “significantly reduce”. In series [5], this compound came in with a Beam balance score of 3.30 and a Garcia score of 10.94. In series [6] (Fluo-3 flow cytometry), the “calcium level in brain tissue” value is listed as “significantly reduce”. For the same compound, in series [6] (Rhodamine 123 flow cytometry), the “mitochondrial membrane potential in brain tissue” value is “stabilize”. For the same compound, in series [7] (setting [8]), the MNPCE came out at 0.55 ± 0.43, the PCE is on record as 41.39 ± 6.11 and the “fMNPCE (‰)” value is on record as 12.60 ± 8.53 ‰. Moreover, in series [7] (setting [9]), the MNPCE worked out at 0.39 ± 0.11, the PCE is 40.58 ± 9.17 and the “fMNPCE (‰)” value is listed as 10.10 ± 2.75 ‰. In series [7] (setting [10]), the MNPCE came out at 0.47 ± 0.19, the PCE was 38.37 ± 3.18 and the “fMNPCE (‰)” value was 12.34 ± 5.52 ‰. In series [7] (different doses of α-asarone emulsion injection (100, 150, 200 mg/kg/day)), the “micronucleus rate compared to the blank emulsion group” value is given as “no significant difference”. In series [7] (intravenous dose of up to 200 mg/kg α-asarone emulsion injection), the “changes in the micronucleus rate of mouse bone marrow cells” value is reported as “no significant changes”.
